Assay results: US8012956B2, “Tropane compounds” (Exelixis, Inc., priority 2007, dated 2011)

Biological target: HSP90 (Homo sapiens, UniProt P07900)
Assay: HSP90 inhibition (HSP90 IC50)
Assay type: biochemical

Molecule | IC50 [µM]
CC(=O)c1ccc(N2[C@@H]3CC[C@H]2C[C@@H](NC(=O)c2cc(C)c(C(N)=O)cc2C)C3)nc1 [N-[8-(5-acetylpyridin-2-yl)-8-azabicyclo[3.2.1]oct-3-endo-yl]-2,5-dimethylbenzene-1,4-dicarboxamide] | < 0.5
CC(=O)c1ccc(N2[C@@H]3CC[C@H]2C[C@@H](NC(=O)c2ccc(C(N)=O)c(NCCC(F)(F)F)c2)C3)nc1 [N4-[8-(5-acetylpyridin-2-yl)-8-azabicyclo[3.2.1]oct-3-endo-yl]-2-[(3,3,3-trifluoropropyl)amino]benzene-1,4-dicarboxamide] | < 0.5
Cc1cc(C(N)=O)c(NCCC(F)(F)F)cc1C(=O)N[C@H]1C[C@H]2CC[C@@H](C1)N2c1ccc(C(=O)C2CC2)cn1 [N-{8-[5-(cyclopropylcarbonyl)pyridin-2-yl]-8-azabicyclo[3.2.1]oct-3-endo-yl}-2-methyl-5-[(3,3,3-trifluoropropyl)amino]benzene-1,4-dicarboxamide] | < 0.5
CN(C)CCC(=O)c1ccc(N2[C@@H]3CC[C@H]2C[C@@H](NC(=O)c2ccc(C(N)=O)c(NCC4CC4)c2)C3)nc1 [2-[(cyclopropylmethyl)amino]-N4-{8-[5-(N,N-dimethyl-beta-alanyl)pyridin-2-yl]-8-azabicyclo[3.2.1]oct-3-endo-yl}benzene-1,4-dicarboxamide] | < 0.5
COc1cccc(C(=O)NC2CC3CCC(C2)N3c2ccc(C(=O)NCC3CCCO3)cn2)c1C (stereo not drawn) [6-[3-endo-({[2-methyl-3-(methyloxy)phenyl]carbonyl}amino)-8-azabicyclo[3.2.1]oct-8-yl]-N-(tetrahydrofuran-2-ylmethyl)pyridine-3-carboxamide] | 2 to 10
Cc1cc(C(N)=O)c(NC(C(C)C)C(F)(F)F)cc1C(=O)N[C@H]1C[C@H]2CC[C@@H](C1)N2c1ccc(C(=O)C2CC2)cn1 (stereo partly drawn) [N-{8-[5-(cyclopropylcarbonyl)pyridin-2-yl]-8-azabicyclo[3.2.1]oct-3-endo-yl}-2-methyl-5-{[2-methyl-1-(trifluoromethyl)propyl]amino}benzene-1,4-dicarboxamide] | < 0.5
NC(=O)c1ccc(N2[C@@H]3CC[C@H]2C[C@@H](NC(=O)c2ccc(CO)cc2)C3)nc1 [6-[3-endo-({[4-(hydroxymethyl)phenyl]carbonyl}amino)-8-azabicyclo[3.2.1]oct-8-yl]pyridine-3-carboxamide] | < 0.5
COc1cccc(C(=O)N[C@H]2C[C@H]3CC[C@@H](C2)N3c2ccc(C(=O)NCc3cccc(Cl)c3)cn2)c1C [N-[(3-chlorophenyl)methyl]-6-[3-endo-({[2-methyl-3-(methyloxy)phenyl]carbonyl}amino) 8-azabicyclo[3.2.1]oct-8-yl]pyridine-3-carboxamide] | 2 to 10
Cc1c(OC(N)=O)cccc1C(=O)N[C@H]1C[C@H]2CC[C@@H](C1)N2c1ccc(C(=O)NCc2ccccc2)cn1 [2-methyl-3-({[8-(5-{[(phenylmethyl)amino]carbonyl}pyridin-2-yl)-8-azabicyclo[3.2.1]oct-3-endo-yl]amino}carbonyl)phenyl carbamate] | 2 to 10
COc1cccc(C(=O)NC2CC3CCC(C2)N3c2ccc(C(=O)NC(C)c3ccc(Br)cc3F)cn2)c1C (stereo not drawn) [N-[1-(4-bromo-2-fluorophenyl)ethyl]-6-[3-endo-({[2-methyl-3-(methyloxy)phenyl]carbonyl}amino)-8-azabicyclo[3.2.1]oct-8-yl]pyridine-3-carboxamide] | 2 to 10
CCC(C)Nc1cc(C(=O)N[C@H]2C[C@H]3CC[C@@H](C2)N3c2ccc(C(=O)C3CC3)cn2)ccc1C(N)=O (stereo partly drawn) [N4-{8-[5-(cyclopropylcarbonyl)pyridin-2-yl]-8-azabicyclo[3.2.1]oct-3-endo-yl}-2-[(1-methylpropyl)amino]benzene-1,4-dicarboxamide] | < 0.5
COc1ccc(C(=O)N[C@H]2C[C@H]3CC[C@@H](C2)N3c2ccc(C(=O)NCc3ccccc3)cn2)c(C)c1OC [6-[3-endo-({[2-methyl-3,4-bis(methyloxy)phenyl]carbonyl}amino)-8-azabicyclo[3.2.1]oct-8-yl]-N-(phenylmethyl)pyridine-3-carboxamide] | 2 to 10
COc1cccc(C(=O)NC2CC3CCC(C2)N3c2ccc(C(=O)N[C@@H](C)c3ccccc3)cn2)c1C (stereo partly drawn) [6-[3-endo-({[2-methyl-3-(methyloxy)phenyl]carbonyl}amino)-8-azabicyclo[3.2.1]oct-8-yl]-N-[(1S)-1-phenylethyl]pyridine-3-carboxamide] | < 0.5
COc1cccc(C(=O)NC2CC3CCC(C2)N3c2ccc(C(=O)N[C@@H](C)c3ccc(Cl)cc3)cn2)c1C (stereo partly drawn) [N-[(1S)-1-(4-chlorophenyl)ethyl]-6-[3-endo-({[2-methyl-3-(methyloxy)phenyl]carbonyl}amino)-8-azabicyclo[3.2.1]oct-8-yl]pyridine-3-carboxamide] | < 0.5
NC(=O)c1ccc(C(=O)N[C@H]2C[C@H]3CC[C@@H](C2)N3c2ccc(C(=O)C3CC3)cn2)s1 [N-{8-[5-(cyclopropylcarbonyl)pyridin-2-yl]-8-azabicyclo[3.2.1]oct-3-endo-yl}thiophene-2.5-dicarboxamide] | 1 to 2
Cc1cnc(CNC(=O)c2ccc(N3[C@@H]4CC[C@H]3C[C@@H](NC(=O)c3ccc(CO)cc3)C4)nc2)cn1 [6-[3-endo-({[4-(hydroxymethyl)phenyl]carbonyl}amino)-8-azabicyclo[3.2.1]oct-8-yl]-N-[(5-methylpyrazin-2-yl)methyl]pyridine-3-carboxamide] | < 0.5
N-[(1S,2S)-2-hydroxycyclopentyl]-6- [3-endo-({[2-methyl-3- (methyloxy)phenyl]oarbonyl}amino)- 8-azabicyclo[3.2.1]oct-8-yl]pyridine- 3-carboxamide | 0.5 to 0.999
CCN1CCC(Nc2cc(C(=O)N[C@H]3C[C@H]4CC[C@@H](C3)N4c3ccc(C(C)=O)cn3)ccc2C(N)=O)CC1 [N4-[8-(5-acetylpyridin-2-yl)-8-azabicyclo[3.2.1]oct-3-endo-yl]-2-[(1-ethylpiperidin-4-yl)amino]benzene-1,4-dicarboxamide] | 0.5 to 0.999
COc1cccc(C(=O)N[C@H]2C[C@H]3CC[C@@H](C2)N3c2ccc(C(=O)Nc3cccc(Cl)c3)cn2)c1C [N-(3-chlorophenyl)-6-[3-endo-({[2-methyl-3-(methyloxy)phenyl]carbonyl)amino)-8-azabicyclo[3.2.1]oct-8-yl]pyridine-3-carboxamide] | 2 to 10
NC(=O)c1ccc(C(=O)NC2CC3CCC(C2)N3c2ccc(C(=O)C3CC3)cn2)cc1N[C@H]1CC[C@H](N2CCCCC2)CC1 (stereo partly drawn) [N4-{8-[5-(cyclopropylcarbonyl)pyridin-2-yl]-8-azabicyclo[3.2.1]oct-3-endo-yl}-2-[(trans-4-piperidin-1-ylcyclohexyl)amino]benzene-1,4-dicarboxamide] | < 0.5
CNC(=O)c1ccc(N2[C@@H]3CC[C@H]2C[C@@H](NC(=O)c2cccc(OC)c2C)C3)nc1 [N-methyl-6-[3-endo-({[2-methyl-3-(methyloxy)phenyl]carbonyl}amino)-8-azabicyclo[3.2.1]oct-8-yl]pyridine-3-carboxamide] | 1 to 2
CCN(CC)CCOc1ccc([C@H](C)NC(=O)c2ccc(N3C4CCC3CC(NC(=O)c3cccc(OC)c3C)C4)nc2)c(F)c1 (stereo partly drawn) [N-[(1S)-1-(4-{[2-(diethylamino)ethyl]oxy}-2-fluorophenyl)ethyl]-6-[3-endo-({[2-methyl-3-(methyloxy)phenyl]carbonyl}amino)-8-azabicyclo[3.2.1]oct-8-yl]pyridine-3-carboxamide] | < 0.5
O=C(NCc1cccnc1)c1ccc(N2[C@@H]3CC[C@H]2C[C@@H](NC(=O)c2ccc(CO)cc2)C3)nc1 [6-[3-endo-({[4-(hydroxymethyl)phenyl]carbonyl}amino)-8-azabicyclo[3.2.1]oct-8-yl]-N-(pyridin-3-ylmethyl)pyridine-3-carboxamide] | < 0.5
CCN1CC[C@@H](NC(=O)c2ccc(N3C4CCC3CC(NC(=O)c3cc(C)c(C(N)=O)cc3C)C4)nc2)C1 (stereo partly drawn) [N-{8-[5-({[(3R)-1-ethylpyrrolidin-3-yl]amino}carbonyl)pyridin-2-yl]-8-azabicyclo[3.2.1]oct-3-endo-yl}-2,5-dimethylbenzene-1,4-dicarboxamide] | < 0.5
CCC(CC)Nc1cc(C(=O)NC2CC3CCC(C2)N3c2ccc(C(=O)N[C@@H]3CCN(C(C)C)C3)cn2)c(C)cc1C(N)=O (stereo partly drawn) [5-[(1-ethylpropyl)amino]-2-methyl-N-{8-[5-({[(3R)-1-(1-methylethyl)pyrrolidin-3-yl]amino}carbonyl)pyridin-2-yl]-8-azabicyclo[3.2.1]oct-3-endo-yl}benzene-1,4-dicarboxamide] | < 0.5
CCCNc1cc(C(=O)N[C@H]2C[C@H]3CC[C@@H](C2)N3c2ccc(C(C)=O)cn2)ccc1C(N)=O [N4-[8-(5-acetylpyridin-2-yl)-8-azabicyclo[3.2.1]oct-3-endo-yl]-2-(propylamino)benzene-1,4-dicarboxamide] | < 0.5
COc1cc(F)ccc1CNC(=O)c1ccc(N2[C@@H]3CC[C@H]2C[C@@H](NC(=O)c2cccc(OC)c2C)C3)nc1 [N-{[4-fluoro-2-(methyloxy)phenyl]methyl}-6-[3-endo-({[2-methyl-3-(methyloxy)phenyl]carbonyl}amino)-8-azabicyclo[3.2.1]oct-8-yl]pyridine-3-carboxamide] | 1 to 2
CS(=O)(=O)CCNc1cc(C(=O)N[C@H]2C[C@H]3CC[C@@H](C2)N3c2ccc(C(=O)NC3CCCC3)cn2)ccc1C(N)=O [N4-(8-{5-[(cyclopentylamino)carbonyl]pyridin-2-yl}-8-azabicyclo[3.2.1]oct-3-endo-yl)-2-{[2-(methylsulfonyl)ethyl]amino}benzene-1,4-dicarboxamide] | < 0.5
CC[C@H](C)NC(=O)c1ccc(N2C3CCC2CC(NC(=O)c2cccc(OC)c2C)C3)nc1 (stereo partly drawn) [6-[3-endo-({[2-methyl-3-(methyloxy)phenyl]carbonyl}amino)-8-azabicyclo[3.2.1]oct-8-yl]-N-[(1S)-1-methylpropyl]pyridine-3-carboxamide] | 2 to 10
CC(=O)c1ccc(N2[C@@H]3CC[C@H]2C[C@@H](NC(=O)c2ccc(C(N)=O)c(NN4CCCCC4)c2)C3)nc1 [N4-[8-(5-acetylpyridin-2-yl)-8-azabicyclo[3.2.1]oct-3-endo-yl]-2-(piperidin-1-ylamino)benzene-1,4-dicarboxamide] | < 0.5
